In US20210230203A1, “Amphiphilic Kanamycin Compositions and Methods” (priority 2020, published 2021):
In brackets after ≈: the same amount, converted by molar mass. Like-named read-outs stand apart in the source and are kept apart here.

How the values were obtained:
[1] = system: Fusarium graminearum B4-5A; assay: microbe, parasite or virus in culture; type: cell-based; settings: Fusarium graminearum B4-5A
Candida albicans 64124 = assay: MIC against fungal strains (Table 1); type: cell-based
Candida albicans MYA2876 = assay: MIC against fungal strains (Table 1); type: cell-based; settings: Candida albicans MYA2876
[2] = system: Cryptococcus neoformans H99; assay: MIC against fungal strains (Table 1); type: cell-based; settings: Cryptococcus neoformans H99
Rhodotorula pilimanae = assay: MIC against fungal strains (Table 1); type: cell-based
E. coli (25922) = assay: MIC against bacterial strains; type: cell-based
S. aureus (ATCC 25923) = assay: MIC against bacterial strains; type: cell-based
[3] = system: S. aureus (ATCC 33591) MRSA; type: cell-based
[4] = system: S. aureus (ATCC 43300) MRSA; type: cell-based
P. variatii = assay: MIC against filamentous and dimorphic fungi, CLSI M27 & M38 (Table 3); type: cell-based, Paecilomyces variotii; settings: Paecilomyces variotii, P. variatii MYA-3630, RPMI 0.165M MOPS, 24-72 hours, read-out: Minimum inhibitory concentration 100%
Rhizopus arrhizus = assay: as above; type: cell-based; settings: Rhizopus arrhizus, 24-72 hours, read-out: Minimum inhibitory concentration 100%
Saksenaea sp. = assay: as above; type: cell-based, Saksenaea species; settings: 24-72 hours, read-out: Minimum inhibitory concentration 100%
P. variotil = assay: MIC against various species, CLSI M27 & M38 (Table 4); type: cell-based, Paecilomyces variotii; settings: Paecilomyces variotii, P. variotil QC, RPMI 0.165M MOPS, 24-72 hours, read-out: Minimum inhibitory concentration 100%
Apaphysomyces = assay: as above; type: cell-based, Apophysomyces; settings: 24-72 hours, read-out: Minimum inhibitory concentration 100%

Molecule | Minimum inhibitory concentration [1] [µg/mL] | Minimum inhibitory concentration (Candida albicans 64124) [µg/mL] | Minimum inhibitory concentration (Candida albicans MYA2876) [µg/mL] | Minimum inhibitory concentration [2] [µg/mL] | Minimum inhibitory concentration (Rhodotorula pilimanae) [µg/mL] | Minimum inhibitory concentration (E. coli (25922)) [µg/mL] | Minimum inhibitory concentration (S. aureus (ATCC 25923)) [µg/mL] | Minimum inhibitory concentration [3] [µg/mL] | Minimum inhibitory concentration [4] [µg/mL] | MIC (P. variatii) [µg/mL] | MIC (Rhizopus arrhizus; Rhizopus arrhizus 99-880, RPMI 0.165M MOPS) [µg/mL] | MIC (Rhizopus arrhizus; Rhizopus arrhizus 99-892, RPMI 0.165M MOPS) [µg/mL] | MIC (Rhizopus arrhizus; Rhizopus arrhizus RA1, RPMI 0.165M MOPS) [µg/mL] | MIC (Saksenaea sp.; Saksenaea sp. SK1, RPMI 0.165M MOPS) [µg/mL] | MIC (Saksenaea sp.; Saksenaea sp. SK2, RPMI 0.165M MOPS) [µg/mL] | MIC (Saksenaea sp.; Saksenaea sp. SK3, RPMI 0.165M MOPS) [µg/mL] | MIC (P. variotil) [µg/mL] | MIC (Apaphysomyces; Apaphysomyces APO1, RPMI 0.165M MOPS) [µg/mL] | MIC (Apaphysomyces; Apaphysomyces APO2, RPMI 0.165M MOPS) [µg/mL] | MIC (Apaphysomyces; Apaphysomyces APO3, RPMI 0.165M MOPS) [µg/mL]
CCCCCCCCCCCCCC(=O)NCC1O[C@H](OC2C(N)CC(N)C(OC3O[C@H](CO)C(O)C(N)[C@H]3O)[C@H]2O)C(O)C(O)[C@@H]1O (stereo partly drawn) [KI05] | 8 (≈ 11.5 µM) | 16 (≈ 23 µM) | 16 (≈ 23 µM) | 4 (≈ 5.76 µM) | 4 (≈ 5.76 µM) | 64 (≈ 92.1 µM) | 16 (≈ 23 µM) | 32 (≈ 46.1 µM) | 32 (≈ 46.1 µM) | – | – | – | – | – | – | – | – | – | – | –
N[C@@H]1[C@@H](O)[C@@H](O[C@@H]2[C@@H](O)[C@H](O[C@H]3O[C@H](CNC(=O)c4cc(-c5ccccc5)nc5ccccc45)[C@@H](O)[C@H](O)[C@H]3O)[C@@H](N)C[C@H]2N)O[C@H](CO)[C@H]1O [KI08] | >256 | >256 | >256 | 128 (≈ 179 µM) | 256 (≈ 358 µM) | >256 | >256 | – | – | – | – | – | – | – | – | – | – | – | – | –
Neomycin [reference compound] | – | – | – | – | – | 2 | 2 | – | – | – | – | – | – | – | – | – | – | – | – | –
NC1CC(N)C(O[C@H]2OC(CNC(=O)CCCc3ccc4ccc5cccc6ccc3c4c56)[C@@H](O)C(O)C2O)[C@H](O)C1OC1O[C@H](CO)C(O)C(N)[C@H]1O (stereo partly drawn) [KI09] | 16 (≈ 21.2 µM) | 16 (≈ 21.2 µM) | 16 (≈ 21.2 µM) | 16 (≈ 21.2 µM) | 16 (≈ 21.2 µM) | 128 (≈ 170 µM) | 32 (≈ 42.4 µM) | 128 (≈ 170 µM) | 32 (≈ 42.4 µM) | – | – | – | – | – | – | – | – | – | – | –
CC[C@@H]([C@H](C)O)n1ncn(-c2ccc(N3CCN(c4ccc(OC[C@@H]5CO[C@@](Cn6cncn6)(c6ccc(F)cc6F)C5)cc4)CC3)cc2)c1=O [Posaconazole, reference compound] | – | – | – | – | – | – | – | – | – | ≤ 0.03 | 1 (≈ 1.43 µM) | 0.25 (≈ 0.357 µM) | 0.25 (≈ 0.357 µM) | ≤ 0.03 | ≤ 0.03 | 0.125 (≈ 0.178 µM) | ≤ 0.03 | 0.125 (≈ 0.178 µM) | 0.125 (≈ 0.178 µM) | 0.25 (≈ 0.357 µM)
CCCCCCCC(=O)NCC1O[C@H](OC2C(N)CC(N)C(OC3O[C@H](CO)C(O)C(N)[C@H]3O)[C@H]2O)C(O)C(O)[C@@H]1O (stereo partly drawn) [KI02] | >256 | >256 | >256 | >256 | >256 | >256 | >256 | – | – | – | – | – | – | – | – | – | – | – | – | –
CCCCCCCCCCCC(=O)NC[C@H]1O[C@H](O[C@H]2[C@H](O)[C@@H](O[C@H]3O[C@H](CO)[C@@H](O)[C@H](N)[C@H]3O)[C@H](N)C[C@@H]2N)[C@H](O)[C@@H](O)[C@@H]1O [KI04] | 16 (≈ 24 µM) | 32 (≈ 48 µM) | 32 (≈ 48 µM) | 8 (≈ 12 µM) | 16 (≈ 24 µM) | 32 (≈ 48 µM) | 32 (≈ 48 µM) | 128 (≈ 192 µM) | 128 (≈ 192 µM) | – | – | – | – | – | – | – | – | – | – | –
